Data reported in patent US10184129B2, “Method and compositions to promote plant growth in metal contaminated environments” (The Regents of the University of California, priority 2011, dated 2019).
“Also recorded” adds a separate entry of the source.

Test system: Col-0 wt and als7-1/swa2-2 roots
Experiment: Root growth of seedlings in a hydroponic environment supplemented with AlCl3 (pH 4.2)
Type: in vivo, Arabidopsis
Settings: for increase in root growth: pH 4.2
Protocol: Seedlings of Col-0 wt and als7-1/swa2-2 were grown for 7 d hydroponically either in the absence or presence 25 μM AlCl3 (pH 4.2), after which root tissue was collected for analysis of spermine content by HPLC. […] Seedlings of Col-0 wt and als7-1/swa2-2 were grown in a hydroponic environment either in the absence or presence of 25 μM AlCl3 (pH 4.2) with or without 25 μM spermine. After 7 d growth, root length was measured for all treatments, with mean±SE values determined from 30 roots of each. […] Seedlings of Col-0 wt were grown either in the absence or presence of 1.5 mM DEMO in a hydroponic environment supplemented with increasing concentrations of AlCl3 (pH 4.2). After 7 d, root length was measured for all treatments, with mean±SE values determined from 30 roots of each. […] Seedlings of Col-0 wt were grown hydroponically either in the absence or presence of 25 μM spermine for 5 d after which the samples were transferred to a solution with or without 25 μM AlCl3 (pH 4.2) containing either 0 or 25 μM spermine. Following 2 d of growth, root tissue was collected and treated for measurement of Al content by ICP-OES.
For all growth experiments performed, Col-0 wt and mutant seeds were surface-sterilized with household bleach and cold stratified for 4 d at 4° C. in the dark for synchronization of germination. Seeds were subsequently suspended in 0.15% (w/v) agarose and for planting on either soaked gel plates or hydroponic plates. Further description of the growth experiments can be found in Larsen, P. B., Geisler, M. J. B., Jones, C. A., Williams, K. M., and Cancel, J. D. (2005), ALS3 encodes a phloem-localized ABC transporter-like protein that is required for aluminum tolerance in Arabidopsis. Plant J. 41, 353-63. All growth analyses were done in a Percival 136LLVL plant growth chamber under a 24 hr light cycle at 20° C. Adult plants were grown in soil under a 24 hr light cycle at 20° C. in a plant growth room supplemented with Sylvania Gro-Lite® fluorescent bulbs.

SMILES: NCCCNCCCCNCCCN [spermine]
- root growth in the presence of Al (in words) (Col-0 wt and als7-1/swa2-2 seedlings, 25 μM spermine, 25 μM AlCl3 pH 4.2, hydroponic, 7 d): increases root growth; also recorded: substantial increase in root growth
- increase in root growth (Col-0 wt, 25 μM spermine, 25 or 50 μM AlCl3, hydroponic, 7 d): ≥ 6 fold
- root growth compared to untreated controls (in words) (Col-0 wt, spermine added, 25 or 50 μM AlCl3, hydroponic): remained significantly inhibited
- increase in root growth (als7-1/swa2-2, 25 μM spermine, 25 or 50 μM AlCl3, hydroponic, 7 d): ≥ 6 fold
- root growth in the presence of Al (in words) (als7-1/swa2-2, spermine added, 25 or 50 μM AlCl3, hydroponic): almost full restoration
